# Results taken from the supplement of paper PMC10307832.
# Tests used:
# Experiment in all cases: relative viability (nuclei count vs DMSO), 5 days (fraction); higher = more cells survive
# [1] = compound: COc1cc(Nc2ncc3c(n2)-c2ccc(Cl)cc2C(c2c(F)cccc2OC)=NC3)ccc1C(=O)O [Alisertib] + CCNC(=O)c1noc(-c2cc(C(C)C)c(O)cc2O)c1-c1ccc(CN2CCOCC2)cc1 [Luminespib] (partner 0.01 µM)
# In short: (§1)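 Relative viability equals treated-well nuclei counts divided by vehicle-well nuclei counts. Counts came from 4× images of lung cancer cell lines grown in 1536-well plates for 5 days after pin-tool dosing on the day after seeding. Dosing used one drug alone or a fixed anchor-drug dose plus five library-drug doses (not always all listed) in √10 steps, and values are medians of duplicate plates.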
# [2] = compound: COc1cc(Nc2ncc3c(n2)-c2ccc(Cl)cc2C(c2c(F)cccc2OC)=NC3)ccc1C(=O)O [Alisertib] + COc1cc2c(Oc3ccc(NC(=O)C4(C(=O)Nc5ccc(F)cc5)CC4)cc3F)ccnc2cc1OCCCN1CCOCC1 [Foretinib] (partner 0.25 µM)
# In short: as §1
# [3] = compound: COc1cc(Nc2ncc3c(n2)-c2ccc(Cl)cc2C(c2c(F)cccc2OC)=NC3)ccc1C(=O)O [Alisertib] + Cc1nc(Nc2ncc(C(=O)Nc3c(C)cccc3Cl)s2)cc(N2CCN(CCO)CC2)n1 [Dasatinib] (partner 0.075 µM)
# In short: as §1
# [4] = compound: COc1cc(Nc2ncc3c(n2)-c2ccc(Cl)cc2C(c2c(F)cccc2OC)=NC3)ccc1C(=O)O [Alisertib] + Nc1ncn([C@H]2C[C@H](O)[C@@H](CO)O2)c(=O)n1 [Decitabine] (partner 2 µM)
# In short: as §1
Cell Line,relative viability ([1]; first compound 0.005 µM),relative viability ([1]; first compound 0.01581 µM),relative viability ([1]; first compound 0.05 µM),relative viability ([1]; first compound 0.1581 µM),relative viability ([1]; first compound 0.5 µM),relative viability ([2]; first compound 0.005 µM),relative viability ([2]; first compound 0.01581 µM),relative viability ([2]; first compound 0.05 µM),relative viability ([2]; first compound 0.1581 µM),relative viability ([2]; first compound 0.5 µM),relative viability ([3]; first compound 0.005 µM),relative viability ([3]; first compound 0.01581 µM),relative viability ([3]; first compound 0.05 µM),relative viability ([3]; first compound 0.1581 µM),relative viability ([3]; first compound 0.5 µM),relative viability ([4]; first compound 0.005 µM),relative viability ([4]; first compound 0.01581 µM),relative viability ([4]; first compound 0.05 µM),relative viability ([4]; first compound 0.1581 µM),relative viability ([4]; first compound 0.5 µM)
NCI-H2087,0.191,0.136,0.155,0.16,0.115,1.12,0.856,0.176,0.172,0.119,0.776,0.628,0.137,0.113,0.123,0.246,0.268,0.149,0.126,0.0842
NCI-H2126,0.785,0.834,0.601,0.274,0.285,1.08,1.02,0.455,0.294,0.382,0.55,0.553,0.48,0.231,0.215,0.528,0.558,0.326,0.268,0.553
NCI-H2170,0.518,0.777,0.317,0.318,0.207,0.715,0.972,0.605,0.563,0.181,0.443,0.561,0.403,0.225,0.167,0.452,0.448,0.3,0.272,0.147
NCI-H2342,0.646,0.662,0.555,0.447,0.368,1.04,1.09,0.652,0.464,0.363,0.291,0.348,0.266,0.268,0.276,0.673,0.639,0.452,0.441,0.431
NCI-H2347,0.275,0.287,0.429,0.317,0.422,0.733,0.84,0.863,0.454,0.459,0.263,0.339,0.275,0.268,0.222,0.574,0.582,0.523,0.51,0.374
NCI-H2405,0.735,0.619,0.745,0.356,0.285,1.02,0.992,0.838,0.371,0.286,0.196,0.202,0.189,0.152,0.132,0.648,0.748,0.632,0.39,0.277
NCI-H3122,0.105,0.101,0.0716,0.0737,0.0805,0.9,0.981,0.551,0.384,0.191,0.581,0.664,0.498,0.103,0.134,0.376,0.412,0.375,0.192,0.161
PC-3 [JPC-3],0.705,0.661,0.455,0.376,0.359,0.97,0.868,0.706,0.531,0.398,0.917,0.927,0.907,0.781,0.442,0.829,0.822,0.661,0.62,0.51
PC-14,0.177,0.141,0.146,0.134,0.151,0.849,0.77,0.837,0.473,0.135,0.213,0.248,0.177,0.0304,0.0192,0.173,0.187,0.154,0.057,0.0492
RERF-LC-KJ,1.24,0.81,0.342,0.248,0.312,0.861,0.772,0.484,0.356,0.21,0.73,0.672,0.366,0.187,0.17,0.731,0.443,0.258,0.173,0.247
SK-LU-1,0.178,0.18,0.159,0.184,0.178,0.818,0.66,0.324,0.227,0.182,0.192,0.157,0.116,0.125,0.104,0.58,0.665,0.239,0.307,0.276
SK-MES-1,0.723,0.4,0.273,0.144,0.17,0.779,0.928,0.74,0.233,0.189,0.354,0.466,0.253,0.125,0.074,0.373,0.346,0.225,0.158,0.167
SW 1573,0.28,0.139,0.106,0.0766,0.102,0.911,0.772,0.667,0.245,0.172,0.329,0.299,0.141,0.159,0.0978,0.419,0.338,0.212,0.125,0.109
UMC-11,0.85,0.428,0.173,0.141,0.132,0.648,0.263,0.189,0.195,0.168,0.32,0.184,0.157,0.144,0.127,0.514,0.324,0.291,0.213,0.214
